The results in this text go back to ChEMBL document CHEMBL1127565, “Identification of two hydrophobic patches in the active-site cavity of human carbonic anhydrase II by solution-phase and solid-state studies and their use in the development of tight-binding inhibitors” (J Med Chem, 1994).

For orientation: Kd means the free concentration of one partner at which half of the binding sites on the other are occupied at equilibrium, for simple one-to-one binding. A low value points to tighter binding.

Structures are written as SMILES.

This test deals with Carbonic anhydrase 2 (Homo sapiens, UniProt P00918).
Description: Dissociation constant against human Carbonic anhydrase II (HCA II)
Compound `NS(=O)(=O)c1ccc(C(=O)NCC23CC4CC(CC(C4)C2)C3)cc1` showed a Kd of 2.1 nM.
For `NS(=O)(=O)c1ccc(C(=O)NCC2CCCCC2)cc1`, the dissociation constant Kd turned out to be 1.1 nM.
Regarding `NS(=O)(=O)c1ccc(C(=O)NCC(=O)NCC(=O)NCC(=O)NCC(=O)OCc2ccccc2)cc1`, binding was characterised by a dissociation constant (Kd) of 210 nM.
The figure for `Cc1ccccc1CNC(=O)c1ccc(S(N)(=O)=O)cc1` is 2.2 nM; for `NS(=O)(=O)c1ccc(C(=O)NCC(=O)NCC(=O)OCc2ccccc2)cc1` it is 71 nM; for `NC(=O)c1ccc(S(N)(=O)=O)cc1` it is 120 nM.
For the compound `CNC(=O)c1ccc(S(N)(=O)=O)cc1`, the Kd stood at 150 nM.
In the case of `NS(=O)(=O)c1ccc(C(=O)NCc2ccc(F)c(F)c2F)cc1`, the affinity, expressed as Kd, was 2.3 nM.
Regarding `NS(=O)(=O)c1ccc(C(=O)NCC(=O)NCC(=O)NCC(=O)OCc2ccccc2)cc1`, the affinity, expressed as Kd, was 75 nM.
`NS(=O)(=O)c1ccc(C(=O)NCc2ccncc2)cc1` gave a dissociation constant (Kd) of 1.4 nM.
The figure for `NS(=O)(=O)c1ccc(C(=O)N[C@H](Cc2ccccc2)C(=O)NCC(=O)NCC(=O)OCc2ccccc2)cc1` is 36 nM; for `NS(=O)(=O)c1ccc(C(=O)NCc2ccc([N+](=O)[O-])cc2)cc1` it is 2 nM.
Regarding `NS(=O)(=O)c1ccc(C(=O)NC(=O)c2ccco2)cc1`, the dissociation constant Kd was 5.6 nM.
With `NS(=O)(=O)c1ccc(C(=O)NCc2cccc3ccccc23)cc1`, the Kd came to 0.6 nM.
Consider `NS(=O)(=O)c1ccc(C(=O)NCc2ccccn2)cc1`, for which the Kd was 4.3 nM.
`NS(=O)(=O)c1ccc(C(=O)N[C@H](C(=O)NCC(=O)NCC(=O)OCc2ccccc2)c2ccccc2)cc1` returned a Kd of 0.9 nM.
Next, `CN(C)c1ccc(CNC(=O)c2ccc(S(N)(=O)=O)cc2)cc1`: 1.4 nM; `CCCCc1ccc(COC(=O)CNC(=O)CNC(=O)CNC(=O)c2ccc(S(N)(=O)=O)cc2)cc1`: 53 nM; `NS(=O)(=O)c1ccc(C(=O)NCC(F)(F)C(F)(F)C(F)(F)C(F)(F)C(F)(F)C(F)(F)C(F)(F)F)cc1`: 0.3 nM.
On to `CCCCCCCCNC(=O)c1ccc(S(N)(=O)=O)cc1`, for which the Kd came out at 2.5 nM.
For `NS(=O)(=O)c1ccc(C(=O)N[C@@H](Cc2ccccc2)C(=O)NCC(=O)NCC(=O)O)cc1`, binding was characterised by a dissociation constant (Kd) of 21 nM.
`NS(=O)(=O)c1ccc(C(=O)N[C@@H](Cc2ccccc2)C(=O)NCC(=O)NCC(=O)OCc2ccccc2)cc1` gave a Kd of 5.3 nM.
Compound `NS(=O)(=O)c1ccc(C(=O)NCSc2ccccc2)cc1` came in with a Kd of 1.7 nM.
`NS(=O)(=O)c1ccc(C(=O)NCc2cccnc2)cc1` had a Kd of 4 nM.
